Test system: C. elegans transcriptome
Assay: Transcriptome profiling (Affymetrix microarrays), differentially expressed genes
Assay type: in vivo, Caenorhabditis elegans
Method: To gain additional insight into the effect of LK molecules on C. elegans, young-adult, wild-type worms were treated with each drug at 100 µM for 8 h in the absence of pathogen. RNA was collected, and transcriptome profiling was performed.
Data were determined using Affymetrix microarrays, as described in Materials and Methods. Download Table S3, XLSX file, 0.07 MB.
Transcriptome profiling was performed on ∼6,000 wild-type, young adult worms incubated with either LK molecules or DMSO for 8 h. RNA isolation was performed using TRIzol extraction, followed by cleanup using RNeasy columns according to the manufacturer’s protocol. Each condition was analyzed in triplicate. Microarray data have been deposited in the GEO database, accession number GSE137516. […] Clustering and generation of the heat map was performed using Cluster 3.0 ([98]) and Treeview ([99]), respectively. Fold change of genes were normalized to average fold change of that gene over all clustered conditions. Genes and conditions were clustered using Euclidean distance and average linkages. […] Microarray data for non-LK molecules were collected from GEO omnibus. WormEXP was used as a secondary method for confirming statistical significance of potential pathways stimulated by each of the LK molecules ([100]). Gene ontologies were generated using DAVID ([101], [102]).

For `CN(C)/N=N/c1ccc(-c2cn(Cc3ccccc3)cn2)cc1` [LK38], the “Fold Change” value (Gene Y40D12A.2, Affy_ID 191017_at, downregulated genes) was 0.3923, the “Fold Change” value (Gene Y43F8B.2, Affy_ID 172568_x_at, downregulated genes) was 0.4361 and the “Fold Change” value (Gene Y44A6C.1, Affy_ID 182843_at, downregulated genes) was 0.4118. The “Fold Change” value (Gene Y45F10A.5, Affy_ID 184558_at, downregulated genes) was 0.1874, the “Fold Change” value (Gene Y46G5A.11, Affy_ID 184716_at, downregulated genes) was 0.4392 and the “Fold Change” value (Gene Y48A6B.7, Affy_ID 193926_at, downregulated genes) was 0.1656. The “Fold Change” value (Gene Y48A6B.7, Affy_ID 193927_s_at, downregulated genes) was 0.1715, the “Fold Change” value (Gene Y51A2D.13, Affy_ID 192992_at, downregulated genes) was 0.2626 and the “Fold Change” value (Gene Y51H4A.7, Affy_ID 180145_s_at, downregulated genes) was 0.364. For the same molecule, the “Fold Change” value (Gene Y59E9AR.7, Affy_ID 172629_x_at, downregulated genes) was 0.2101, the “Fold Change” value (Gene Y59H11AM.1, Affy_ID 172113_x_at, downregulated genes) was 0.292 and the “Fold Change” value (Gene Y71H2AL.1, Affy_ID 177190_at, downregulated genes) was 0.3481. The “Fold Change” value (Gene Y105C5A.13, Affy_ID 172627_x_at, downregulated genes) was 0.08697, the “Fold Change” value (Gene Y105C5A.24, Affy_ID 187121_at, downregulated genes) was 0.3583 and the “Fold Change” value (Gene Y119D3B.13, Affy_ID 175112_s_at, downregulated genes) was 0.1938. The “Fold Change” value (Gene Y119D3B.13, Affy_ID 176131_at, downregulated genes) was 0.2809, the “Fold Change” value (Gene ZC416.6, Affy_ID 188470_s_at, downregulated genes) was 0.4112 and the “Fold Change” value (Gene ZK112.1, Affy_ID 175995_at, downregulated genes) was 0.3894. The “Fold Change” value (Gene ZK131.4, Affy_ID 190307_s_at, downregulated genes) was 0.355, the “Fold Change” value (Gene ZK131.7, Affy_ID 172871_x_at, downregulated genes) was 0.3915 and the “Fold Change” value (Gene ZK354.1, Affy_ID 172927_x_at, downregulated genes) was 0.2349. For the same molecule, the “Fold Change” value (Gene ZK1248.4, Affy_ID 172734_x_at, downregulated genes) was 0.2783, the “Fold Change” value (Gene ZK1248.6, Affy_ID 172887_x_at, downregulated genes) was 0.1775 and the “Fold Change” value (Gene ZK1251.6, Affy_ID 172938_x_at, downregulated genes) was 0.2909. The “Fold Change” value (upregulated gene Y19D10A.9, Affy_ID 180592_s_at) was 3.58, the “Fold Change” value (upregulated gene Y22F5A.4, Affy_ID 182989_at) was 2.438 and the “Fold Change” value (upregulated gene Y22F5A.5, Affy_ID 183028_s_at) was 6.765. For the same molecule, the “Fold Change” value (upregulated gene Y37D8A.6, Affy_ID 181665_at) was 2.8924, the “Fold Change” value (upregulated gene Y37E3.16, Affy_ID 173045_at) was 4.522 and the “Fold Change” value (upregulated gene Y38E10A.14, Affy_ID 175449_s_at) was 26.3223. The “Fold Change” value (upregulated gene Y39G10AR.10, Affy_ID 176486_at) was 4.567, the “Fold Change” value (upregulated gene Y40B10A.6, Affy_ID 176851_at) was 66.4819 and the “Fold Change” value (upregulated gene Y41C4A.16, Affy_ID 194230_x_at) was 2.891. The “Fold Change” value (upregulated gene Y41D4B.10, Affy_ID 176055_at) was 10.2277, the “Fold Change” value (upregulated gene Y41D4B.16, Affy_ID 176044_at) was 4.224 and the “Fold Change” value (upregulated gene Y45F10C.4, Affy_ID 186062_at) was 3.88. The “Fold Change” value (upregulated gene Y45G12C.2, Affy_ID 187084_at) was 31.3356, the “Fold Change” value (upregulated gene Y46C8AL.2, Affy_ID 172184_x_at) was 22.6612 and the “Fold Change” value (upregulated gene Y46G5A.4, Affy_ID 187467_s_at) was 2.088. For the same molecule, the “Fold Change” value (upregulated gene Y47D3B.10, Affy_ID 175803_at) was 15.9397, the “Fold Change” value (upregulated gene Y47D7A.1, Affy_ID 176618_at) was 2.89 and the “Fold Change” value (upregulated gene Y47H9C.5, Affy_ID 191065_s_at) was 3.429. The “Fold Change” value (upregulated gene Y51H7C.1, Affy_ID 186349_at) was 10.9287, the “Fold Change” value (upregulated gene Y53G8B.2, Affy_ID 184714_s_at) was 6.111 and the “Fold Change” value (upregulated gene Y54G2A.6, Affy_ID 173144_at) was 2.211. The “Fold Change” value (upregulated gene Y55B1AR.1, Affy_ID 187047_at) was 6.195, the “Fold Change” value (upregulated gene Y57A10A.23, Affy_ID 187073_at) was 4.734 and the “Fold Change” value (upregulated gene Y66D12A.24, Affy_ID 175124_at) was 2.206. The “Fold Change” value (upregulated gene Y77E11A.2, Affy_ID 187013_at) was 2.874, the “Fold Change” value (upregulated gene Y105C5B.15, Affy_ID 186799_at) was 3.08 and the “Fold Change” value (upregulated gene Y105C5B.9, Affy_ID 185162_at) was 4.4277. For the same molecule, the “Fold Change” value (upregulated gene Y106G6D.6, Affy_ID 185498_at) was 6.567, the “Fold Change” value (upregulated gene ZC155.1, Affy_ID 173222_s_at) was 2.443 and the “Fold Change” value (upregulated gene ZK455.1, Affy_ID 193891_at) was 2.648. For the same molecule, the “Fold Change” value (upregulated gene ZK455.7, Affy_ID 193924_at) was 3.307, the “Fold Change” value (upregulated gene ZK512.7, Affy_ID 186714_s_at) was 3.427 and the “Fold Change” value (upregulated gene ZK637.13, Affy_ID 173475_s_at) was 2.9018. For the same molecule, the “Fold Change” value (upregulated gene ZK770.3, Affy_ID 180366_s_at) was 3.303 and the “Fold Change” value (upregulated gene ZK899.2, Affy_ID 178376_s_at) was 3.754.

Source: publication PMC7845594, “Novel Immune Modulators Enhance Caenorhabditis elegans Resistance to Multiple Pathogens” (mSphere, 2021)
